Assay results published in patent US8858994B2, “Pharmaceutical formulation comprising ezetimibe” (Ratiopharm GmbH, priority 2007, dated 2014).

Key:
Format in all cases: physicochemical
[1] = Particle size determination according to Dry Powder Method (Malvern Master sizer S); settings: ezetimibe used in Examples 1, 3 and 4, in µm (unit assumed)
Source text: a) Particle Size Determination According to “Dry Powder Method”.
Typical Instrumental Conditions:
Pour the small volume sample in Drypowder Sampler unit. Set the feed rate & air pressure with the help of adjustable knob. And start the measurement until to get the obscuration between 15 and 30. Pass the laser beam through the sample cell to measure the particle size distribution and record the data into a histogram then report the results at 10%, 50% and 90% level of particles size distribution.
Note: Ensure the Laser power should be more than 60%.

[2] = Particle size determination according to Wet Method (Malvern laser diffraction); settings: dioctyl sulfosuccinate sodium salt in n-hexane
Source text: b) Particle Size Determination According to “Wet Method”. Ezetimibe Samples PSD Measurement by Malvern Laser Diffraction
A Malvern Laser Diffraction instrument was used to characterize the particle size distribution of ezetimibe. A Mastersizer S model equipped with a small cell dispersion unit MSI with a digital dispersion unit controller was used. The measurement was done using range lens 300RF (working range […]), beam length: 2.40 mm and presentation 3NHE. In this case, a solution of dioctyl sulfosuccinate sodium salt in n-hexane was used as a dilution medium. The measurement was started after 1 minute of recirculation after suspension addition into measurement cell at speed rate 2000+−10 rpm. The suspension was prepared of ˜0.1 g sample in solution 0.065% dioctyl sulfosuccinate sodium salt in n-hexane by vortex for 10 seconds and by sonication for 30 seconds. According to the accepted rules of Good Manufacture Procedures, the sample of ezetimibe is preferably measured after a successful blank measurement (% obscuration NMT 0.1%) is performed.

[3] = Determination of specific surface area (BET, single point); settings: BET, single point; Sample no. 1 of example 5b)
Method: The specific surface area is determined by […] using BET calculation.
Specific surface area is measured by using the following Parameters: • Instrument: Pulse Chemisorbs 2700 (micromeritics) • Degassing: With out degassing • Sensitivity: No • Calculations: BET • Type: Single point system • Points: One • Sample cell: 6 cm^3 Procedure: • Sample no. 1 of example 5b) of known weight is taken in the sample transparent U shape glass tube. The sample is […] to remove all atmosphere at liquid nitrogen temperature (−196° C.). This is achieved by passing nitrogen through the sample tube, which is placed in a liquid nitrogen bath (−196° C.). The value divided by the weight of the catalyst/sample taken in the tube gives the surface area of the sample. BET Surface Area: • Surface area determination is an important factor in determining the catalyst performance, a method of assessing the efficiency of the catalyst support and promoter. […]
Is a straight line (in the range of P/P0:0.05-0.3) with slope (C−1)/(VmC) and intercept 1/VmC. By knowing these intercept and slope values calculated and further specific surface area can be calculated as follows Specific surface area (m^2/g)={[Vm×NA]/[22414×Wt]}×Am • Where, • Vm=monolayer volume in ml at STP • NA=Avogadro number • Wt=Weight of the catalyst • Am=mean cross sectional area of adsorbate molecule ([…] for N2

| d(0.1) [1] | d(0.5) [1] | d(0.9) [1] | d(0.1) [2] | d(0.5) [2] | d(0.9) [2] | Specific surface area [3] | SMILES |
| --- | --- | --- | --- | --- | --- | --- | --- |
| 3.349 | 6.356 | 11.429 | – | – | – | – | O=C1[C@H](CC[C@H](O)c2ccc(F)cc2)[C@@H](c2ccc(O)cc2)N1c1ccc(F)cc1 [Sample 3 of Example 5a] |
| – | – | – | 2.02 μm | 4.11 μm | 8.21 μm | – | O=C1[C@H](CC[C@H](O)c2ccc(F)cc2)[C@@H](c2ccc(O)cc2)N1c1ccc(F)cc1 [Sample 4] |
| – | – | – | 2.70 μm | 6.76 μm | 16.47 μm | – | O=C1[C@H](CC[C@H](O)c2ccc(F)cc2)[C@@H](c2ccc(O)cc2)N1c1ccc(F)cc1 [Sample 5] |
| – | – | – | – | – | – | 1.24 m^2/gram | O=C1[C@H](CC[C@H](O)c2ccc(F)cc2)[C@@H](c2ccc(O)cc2)N1c1ccc(F)cc1 [ezetimibe, 1-(4-fluorophenyl)-3(R)-[3-(4-fluorophenyl)-3(S)-hydroxypropyl]-4(S)-(4-hydroxyphenyl)-2-azetidinone] |
